Literature values in patent publication US10794912B2 (priority 2017, dated 2020).

Details: in vivo

For `C[C@@H]1Cc2c(Cl)cc(C(=O)N[C@@H](Cc3ccccc3)C(=O)O)c(O)c2C(=O)O1` [ochratoxin A], the time to death is given as 5 to 6 days.
